Values of other authors, collected in patent US11452288B1, “Innocuous sterilant using hemocyanin and functionalized fullerenes with broad-spectrum intracellular and interstitial microbiocidal and radical scavenging effects for packaged matter, biologics and organics including liquids, gases, tissue, organs, cells, and limbs with copper mediated oxygenation …” (priority 2022, dated 2022).

Assays:
[1] = tested on: endothelial; details: optimal antifungal concentrations in the nutrient media
[2] = tested on: fungal donor rim cultures; details: additive to Optisol-GS, compared with Optisol-GS alone

| Compound | endothelial toxicity [1] | rate of positive fungal donor rim cultures [2] |
| --- | --- | --- |
| C[C@@H]1[C@H](O)[C@@H](C)/C=C/C=C/C=C/C=C/C=C/C=C/C=C/[C@H](O[C@@H]2O[C@H](C)[C@@H](O)[C@H](N)[C@@H]2O)C[C@@H]2O[C@](O)(C[C@@H](O)C[C@@H](O)[C@H](O)CC[C@@H](O)C[C@@H](O)CC(=O)O[C@H]1C)C[C@H](O)[C@H]2C(=O)O [Amphotericin B] | significant endothelial toxicity | – |
| C[C@@H](c1ncncc1F)[C@](O)(Cn1cncn1)c1ccc(F)cc1F [voriconazole] | – | significant reduction |
